Data taken from US4292319A, “Antiphlogistic pharmaceutical compositions and method of use” (Boehringer Ingelheim GmbH, priority 1977, dated 1981).
Where a name gives a salt, the structure may show the parent alone. Read-outs that look alike come from different tables or passages of the source.

Legend:
[1] = system: kaolin-induced edema of the rat's hind paw; assay: Test for antiphlogistic effect against the kaolin-induced edema of the rat's hind paw; format: in vivo, rat (Chbb:THOM); details: oral, rat; for ED35: Rattus norvegicus, po, 5 h, kaolin edema, read-out: ED35; for Thickness of the paw (mean): 5 h after kaolin
Method: (2) Test for antiphlogistic effect against the kaolin-induced edema of the rat's hind paw (tested substances: A, B, C and D)
The test was carried out on male Chbb:THOM-rats with a body weight between 125 and 150 gm. According to HILLEBRECHT [Arzneimittel-Forsch. 4, 607 (1954)], a subplantary injection of 0.05 ml of a 10% suspension of kaolin in an aqueous 0.85% sodium chloride solution in the hind paw was used for the provocation of the kaolin edema. The other hind paw was subplantarily injected with the same volume of an aqueous 0.85% sodium chloride solution.
The measurement of the thickness of the paws was carried out using the technique of DOEPFNER and […] [Int. Arch. Allergy appl. Immunol. 12, 89 (1958)] by way of the determination of the maximum sagittal diameter, using a measuring device with constant pressure, before and 5 hours after the provocation of the edema.
The test substances (the non-steroidal antiphlogistics or the mixture of non-steroidal antiphlogistics with pirenzepine dihydrochloride) were administered 30 minutes before provocation of the edema as a trituration in 1% tylose (1 ml/[…]) by way of an esophageal tube.
The diameter of the paw measured before the beginning of the test as well as the increase in diameter of the other paw caused by injection were subtracted from the diameter of the kaolin-treated paw, and this difference, being the real swelling value, was used for the further calculations.
(§1) From the swelling values obtained by administration of different dosages of non-steroidal antiphlogistics with or without the addition of pirenzepine dihydrochloride, using a linear regression analysis according to LINDNER [Statistische Methoden, 4th Ed., pages 148-162, Birkhauser, Basel, Switzerland (1964)], the ED35 values of the antiphlogistics were calculated with the confidence limits according to FIELLER [Quart. J. Pharm. Pharmacol. 17, 117 (1944)], the ED35 being the dosage which reduces the swelling of the paws by 35% in comparison to the control animals.

stomach of the rat = assay: Test for ulcerogenic effect on the stomach of the rat; format: in vivo, rat (Chbb:THOM); details: oral, 3 subsequent days
Method: (§2) (1) Test for ulcerogenic effect on the stomach of the rat
(§3) The test was carried out on male and female (1:1) Chbb:THOM-rats with a body weight between 130 to 150 gm at the beginning of the study.
(§4) The test substances (non-steroidal anti-phlogistics or mixtures of these antiphlogistics with pirenzepine dihydrochloride) were administered as triturations in 1% tylose (1 ml/100 gm animal) by way of an esophageal tube once a day on three successive days.
(§5) Four hours after the last administration (i.e. on the 3rd day) the animals were killed by an over-dose of ether. The stomachs wer dissected, cut along the great curvature and washed under flowing water for subsequent macroscopic evaluation.

[2] = system: carrageenin-induced edema of the hind paw of the rat; assay: Test for antiphlogistic effect against the carrageenin-induced edema of the hind paw of the rat; format: in vivo; details: rat; for ED35: Rattus norvegicus, po, 3 h, carrageenin edema; for Thickness of the paw (mean): 3 h after carrageenin
Method: The test was carried out in analogy to the above test for the kaolin-induced edema. However, the edema was induced according to the method of WINTER et al. [J. Pharmacol. 141, 369 (1963)] by subplantary injection of 0.05 ml of a 1% solution of carrageenin in an aqueous 0.85% solution of sodium chloride. […] Three hours after the provocation of the edema the measurement which provided the basis for the evaluation of an anti-exudative effect was carried out.
as §1

[3] = Test for ulcerogenic effect on the stomach of the rat; format: in vivo, rat (Chbb:THOM); details: in vivo, po
Method: as §2, §3, §4, §5

[4] = antiphlogistic 12.5 mgm/kg, without A
[5] = antiphlogistic 25 mgm/kg + A 100 mgm/kg
[6] = antiphlogistic 25 mgm/kg, without A
[7] = antiphlogistic 50 mgm/kg + A 100 mgm/kg
[8] = antiphlogistic 50 mgm/kg, without A
[9] = antiphlogistic 100 mgm/kg, without A

Compound: O=C(O)C=CC(O)c1ccc(-c2ccccc2F)cc1 (centres unmarked) [C, 4-[4-(2'-fluoro-biphenylyl)]-4-hydroxy-crotonic acid morpholine salt]
- ED35 ([1]; with A 100 mgm/kg): 17.6 mg/kg
- ED35 ([1]; without A): 15.3 mg/kg
- Thickness of the paw (mean) ([1]; antiphlogistic 6.25 mgm/kg + A 100 mgm/kg): 215.6 10^-2 mm
- Thickness of the paw (mean) ([1]; antiphlogistic 6.25 mgm/kg, without A): 203.9 10^-2 mm
- Thickness of the paw (mean) ([1]; antiphlogistic 12.25 mgm/kg + A 100 mgm/kg): 187.0 10^-2 mm
- Thickness of the paw (mean) [1, 4]: 179.5 10^-2 mm
- Thickness of the paw (mean) [1, 5]: 166.0 10^-2 mm
- Thickness of the paw (mean) [1, 6]: 164.3 10^-2 mm
- Thickness of the paw (mean) [1, 7]: 149.3 10^-2 mm
- Thickness of the paw (mean) [1, 8]: 138.0 10^-2 mm
- Thickness of the paw (mean) [1, 9]: 93.8 10^-2 mm
- Ratio of animals with ulcers (stomach of the rat; antiphlogistic 52 mgm/kg, without A): 5/12
- Ratio of animals with ulcers (stomach of the rat; antiphlogistic 62 mgm/kg + A 50 mgm/kg): 4/15
- Ratio of animals with ulcers (stomach of the rat; antiphlogistic 62 mgm/kg, without A): 8/12
- Ratio of animals with ulcers (stomach of the rat; antiphlogistic 74 mgm/kg + A 50 mgm/kg): 8/17
- Ratio of animals with ulcers (stomach of the rat; antiphlogistic 74 mgm/kg + A 100 mgm/kg): 0/15
- Ratio of animals with ulcers (stomach of the rat; antiphlogistic 74 mgm/kg, without A): 10/12
- Ratio of animals with ulcers (stomach of the rat; antiphlogistic 88 mgm/kg + A 50 mgm/kg): 9/17
- Ratio of animals with ulcers (stomach of the rat; antiphlogistic 88 mgm/kg + A 100 mgm/kg): 4/15
- Ratio of animals with ulcers (stomach of the rat; antiphlogistic 106 mgm/kg + A 50 mgm/kg): 11/17
- Ratio of animals with ulcers (stomach of the rat; antiphlogistic 106 mgm/kg + A 100 mgm/kg): 3/15
- Ratio of animals with ulcers (stomach of the rat; antiphlogistic 127 mgm/kg + A 100 mgm/kg): 7/15
- Ratio of animals with ulcers (stomach of the rat; antiphlogistic 153 mgm/kg + A 100 mgm/kg): 8/15

Compound: O=C([O-])Cc1ccccc1Nc1c(Cl)cccc1Cl.[Na+] [E, sodium [o-(2,6-dichloro-anilino)-phenyl]acetate]
- ED35 ([2]; with A 400 mgm/kg): 4.3 mg/kg
- ED35 ([2]; without A): 5 mg/kg
- Thickness of the paw (mean) ([2]; antiphlogistic 1.5 mgm/kg + A 400 mgm/kg, oral): 209.5 10^-2 mm
- Thickness of the paw (mean) ([2]; antiphlogistic 1.5 mgm/kg, without A, oral): 209.5 10^-2 mm
- Thickness of the paw (mean) ([2]; antiphlogistic 3.0 mgm/kg + A 400 mgm/kg, oral): 181.5 10^-2 mm
- Thickness of the paw (mean) ([2]; antiphlogistic 3 mgm/kg, without A, oral): 188.5 10^-2 mm
- Thickness of the paw (mean) ([2]; antiphlogistic 6.0 mgm/kg + A 400 mgm/kg, oral): 162.5 10^-2 mm
- Thickness of the paw (mean) ([2]; antiphlogistic 6 mgm/kg, without A, oral): 170.0 10^-2 mm
- Thickness of the paw (mean) ([2]; antiphlogistic 12.0 mgm/kg + A 400 mgm/kg, oral): 148.5 10^-2 mm
- Thickness of the paw (mean) ([2]; antiphlogistic 12 mgm/kg, without A, oral): 154.0 10^-2 mm
- Ratio of animals with ulcers (stomach of the rat; antiphlogistic 2 mgm/kg + A 200 mgm/kg): 3/20
- Ratio of animals with ulcers (stomach of the rat; antiphlogistic 2 mgm/kg + A 400 mgm/kg): 1/20
- Ratio of animals with ulcers (stomach of the rat; antiphlogistic 2 mgm/kg, without A): 5/20
- Ratio of animals with ulcers (stomach of the rat; antiphlogistic 4 mgm/kg + A 200 mgm/kg): 9/20
- Ratio of animals with ulcers (stomach of the rat; antiphlogistic 4 mgm/kg + A 400 mgm/kg): 7/20
- Ratio of animals with ulcers (stomach of the rat; antiphlogistic 4 mgm/kg, without A): 14/20
- Ratio of animals with ulcers (stomach of the rat; antiphlogistic 8 mgm/kg + A 200 mgm/kg): 17/19
- Ratio of animals with ulcers (stomach of the rat; antiphlogistic 8 mgm/kg + A 400 mgm/kg): 13/20
- Ratio of animals with ulcers (stomach of the rat; antiphlogistic 8 mgm/kg, without A): 19/20
- Ratio of animals with ulcers (stomach of the rat; antiphlogistic 16 mgm/kg + A 200 mgm/kg): 20/20
- Ratio of animals with ulcers (stomach of the rat; antiphlogistic 16 mgm/kg + A 400 mgm/kg): 19/20
- TD50 ([3]; with A 200 mgm/kg, oral, 3 subsequent days, read-out: ED50-ulcer): 4.05 mg/kg
- TD50 ([3]; with A 400 mgm/kg, oral, 3 subsequent days, read-out: ED50-ulcer): 5.63 mg/kg
- TD50 ([3]; without A, oral, 3 subsequent days, read-out: ED50-ulcer): 2.95 mg/kg

Compound: COc1ccc2cc([C@H](C)C(=O)O)ccc2c1 [F, d-2-(6-methoxy-2-naphthyl)-propionic acid]
- ED35 ([2]; with A 400 mgm/kg, oral, read-out: ED35): 3 mg/kg
- ED35 ([2]; without A, oral, read-out: ED35): 2.8 mg/kg
- Thickness of the paw (mean) ([2]; antiphlogistic 2 mgm/kg + A 400 mgm/kg, oral): 192.2 10^-2 mm
- Thickness of the paw (mean) ([2]; antiphlogistic 2 mgm/kg, without A, oral): 188.5 10^-2 mm
- Thickness of the paw (mean) ([2]; antiphlogistic 4 mgm/kg + A 400 mgm/kg, oral): 168.5 10^-2 mm
- Thickness of the paw (mean) ([2]; antiphlogistic 4 mgm/kg, without A, oral): 157.5 10^-2 mm
- Thickness of the paw (mean) ([2]; antiphlogistic 8 mgm/kg + A 400 mgm/kg, oral): 133.3 10^-2 mm
- Thickness of the paw (mean) ([2]; antiphlogistic 8 mgm/kg, without A, oral): 118.0 10^-2 mm

Compound: CC(C)Cc1ccc(C(C)C(=O)O)cc1 (centres unmarked) [H, 2-(4-isobutylphenyl)-propionic acid]
- ED35 ([2]; with A 400 mgm/kg): 34.2 mg/kg
- ED35 ([2]; without A): 39.6 mg/kg
- Thickness of the paw (mean) ([2]; antiphlogistic 20 mgm/kg + A 400 mgm/kg, oral): 204.0 10^-2 mm
- Thickness of the paw (mean) ([2]; antiphlogistic 20 mgm/kg, without A, oral): 210.0 10^-2 mm
- Thickness of the paw (mean) ([2]; antiphlogistic 40 mgm/kg + A 400 mgm/kg, oral): 170.0 10^-2 mm
- Thickness of the paw (mean) ([2]; antiphlogistic 40 mgm/kg, without A, oral): 167.0 10^-2 mm
- Thickness of the paw (mean) ([2]; antiphlogistic 80 mgm/kg + A 400 mgm/kg, oral): 131.7 10^-2 mm
- Thickness of the paw (mean) ([2]; antiphlogistic 80 mgm/kg, without A, oral): 141.5 10^-2 mm
- Ratio of animals with ulcers (stomach of the rat; [4]): 0/20
- Ratio of animals with ulcers (stomach of the rat; [5]): 6/20
- Ratio of animals with ulcers (stomach of the rat; antiphlogistic 25 mgm/kg + A 400 mgm/kg): 1/20
- Ratio of animals with ulcers (stomach of the rat; [6]): 8/20
- Ratio of animals with ulcers (stomach of the rat; [7]): 11/20
- Ratio of animals with ulcers (stomach of the rat; antiphlogistic 50 mgm/kg + A 400 mgm/kg): 11/20
- Ratio of animals with ulcers (stomach of the rat; [8]): 15/20
- Ratio of animals with ulcers (stomach of the rat; antiphlogistic 100 mgm/kg + A 100 mgm/kg): 18/20
- Ratio of animals with ulcers (stomach of the rat; antiphlogistic 100 mgm/kg + A 400 mgm/kg): 16/20
- Ratio of animals with ulcers (stomach of the rat; [9]): 19/20
- Ratio of animals with ulcers (stomach of the rat; antiphlogistic 200 mgm/kg + A 100 mgm/kg): 20/20
- Ratio of animals with ulcers (stomach of the rat; antiphlogistic 200 mgm/kg + A 400 mgm/kg): 19/20
- Ratio of animals with ulcers (stomach of the rat; antiphlogistic 200 mgm/kg, without A): 20/20
- TD50 ([3]; ED50-ulcer): 31 mg/kg
